Measured values from US6921749B1, “Polypeptides derived from endostatin exhibiting antiangiogenic activity” (Universita' Degli Studi di Milano, priority 1999, dated 2005).
Where no end group is shown, it is not given here. The star is where a group is joined. tBu = CC(C)(C)*

How the values were obtained:
[1] = system: coronary venular endothelial cells (CVEC); assay: Proliferation studies (total cell number), postcapillary venule endothelial cells; format: cell-based, bovine; settings: 10 to 1000 ng/ml, 48 hr, FGF-2 and VEGF 20 ng/ml each
Excerpt: The coronary venular endothelial cells (CVEC) were isolated and cultured as previously described (8).
Cell proliferation was quantified by total cell number as reported (12,13).
Cell proliferation was quantified by counting the total number of cells after 48 hr treatment. Endothelial cells isolated from postcapillary venules were used to test the effect on angiogenesis. […] The effect was more pronounced on FGF-2-induced growth. […] Similar effects were obtained on all the endothelial cell lines tested (FIG. 1E).
C-E: Effect of endostatin fragments on endothelial cell proliferation. Endothelial cell (C,D: CVEC; E, MAE) proliferation was stimulated with FGF-2 and VEGF (20 ng/ml each). Data are expressed as number of cells counted/well after 48 hr incubation with test substances. Numbers are means±SEM of 6 and 2 experiments run in triplicate for CVEC and ME, respectively.

mouse aorta rings = assay: Vascular sprouting in vitro in three-dimensional fibrin gels; format: cell-based; settings: vascular rings in 3D fibrin gels, day 3
Experimental: Vascular sprouting from mouse aorta rings was assessed in three-dimensional fibrin gels preparations according to the method described by Brown et al (15), with minor modifications. Quantitative evaluation of newly formed structures was carried out at day 3. The area covered by vascular sprouts was quantified in microscopic units (0.21 mm^2).
The formation of capillary-like structures in vascular rings cultured in 3D fibrin gels was used to test angiogenesis in vitro. Fragment I and IV inhibited the spontaneous growth of capillaries and the one induced by FGF-2 and VEGF. As an example the effect of 100 ng/ml concentration of either fragment is shown (FIG. 3A).
FIG. 3: Effect of endostatin fragments on angiogenesis in vitro (A) and in vivo (B). A. In vitro vessel sprouting from rings of mouse aortas was induced by FGF-2 (10 ng/ml). Fragments I and IV were used at […]. Data are reported as mean area occupied by tubules-like structures after 3 days from stimulation. Numbers are means of one representative experiment out of two run in triplicate.

endothelial cells = assay: In vitro inhibition test on endothelial cells proliferation and migration; format: cell-based
Excerpt: These polypeptides have remarkable antiangiogenic activity in the in vitro inhibition test on endothelial cells proliferation and migration (16).

[2] = system: microvascular endothelial cells; settings: E. coli expressed protein; cited from earlier work

In the case of “Cys-Glu-Thr-Trp-Arg-Thr-Glu-Thr-Thr-Gly-Ala-Thr-Gly-Gln-Ala-Ser-Ser-Leu-Leu-Ser-Gly-Arg-Leu-Leu-Glu-Gln-Lys-Ala-Ala-Ser-Cys-His-Asn-Ser-Tyr-Ile-Val-Leu-Cys(tBu)-Ile-Glu-Asn-Ser-Phe-Met-Thr-Ser-Phe-Ser-Lys (CETWRTETTGATGQASSLLSGRLLEQKAASCHNSYIVLC(tBu)IENSFMTSFSK; cysteine pairing not given here) [Fragment IV]”, the “cell growth induced by FGF-2 and VEGF” value [1] was “most potent”, the “growth of capillaries induced by FGF-2 and VEGF” value (mouse aorta rings) was “inhibited” and the “spontaneous growth of capillaries” value (mouse aorta rings) was “inhibited”.
With “His-Thr-His-Gln-Asp-Phe-Gln-Pro-Val-Leu-His-Leu-Val-Ala-Leu-Asn-Thr-Pro-Leu-Ser-Gly-Gly-Met-Arg-Gly-Ile-Arg-Gly-Ala-Asp-Phe-Gln-Cys(tBu)-Phe-Gln-Gln-Ala-Arg-Ala (HTHQDFQPVLHLVALNTPLSGGMRGIRGADFQC(tBu)FQQARA) [Fragment I]” the “potency compared with endostatin” value (endothelial cells) was “equipotential to endostatin”, the “growth of capillaries induced by FGF-2 and VEGF” value (mouse aorta rings) was “inhibited” and the “spontaneous growth of capillaries” value (mouse aorta rings) was “inhibited”.
For endostatin, the “FGF-2 and VEGF induced proliferation and migration” value [2] is listed as “able to block”.
